In patent US11584740B2 (priority 2017, dated 2023):

Experiments:
[1] = test system: Monographella nivalis (Microdochium nivale); assay: Monographella nivalis (Microdochium nivale) / liquid culture (foot rot cereals); type: cell-based; conditions: 20 ppm; compared to untreated control; inhibition of growth determined photometrically 4-5 days after application, 24° C.
Experimental: Monographella nivalis (Microdochium nivale)/Liquid Culture (Foot Rot Cereals)
(§1) Conidia of the fungus from cryogenic storage are directly mixed into nutrient broth (PDB potato dextrose broth). After placing a (DMSO) solution of test compound into a microtiter plate (96-well format), the nutrient broth containing the fungal spores is added. The test plates are incubated at 24° C. and the inhibition of growth is determined photometrically 4-5 days after application.

[2] = test system: Magnaporthe grisea (Pyricularia oryzae); type: cell-based; conditions: 20 ppm; compared to untreated control; inhibition of growth determined photometrically 3-4 days after application, 24° C.
[3] = test system: Glomerella lagenarium (Colletotrichum lagenarium); assay: Glomerella lagenarium (Colletotrichum lagenarium) / liquid culture (anthracnose); type: cell-based; conditions: 20 ppm; compared to untreated control; inhibition of growth measured photometrically 3-4 days after application, 24° C.
Experimental: Glomerella Lagenarium (Colletotrichum lagenarium)/Liquid Culture (Anthracnose)
as §1, with “measured” for “determined”, “3-4” for “4-5”

Fusarium culmorum = type: cell-based; conditions: 20 ppm; compared to untreated control; inhibition of growth determined photometrically 3-4 days after application, 24° C.
[4] = test system: Botryotinia fuckeliana (Botrytis cinerea); assay: Botryotinia fuckeliana (Botrytis cinerea) / liquid culture (gray mould); type: cell-based; conditions: 20 ppm; compared to untreated control; inhibition of growth determined photometrically 3-4 days after application, 24° C.
Experimental: Botryotinia fuckeliana (Botrytis cinerea)/Liquid Culture (Gray Mould)
as §1, with “(Vogels” for “(PDB potato dextrose”, “3-4” for “4-5”

Gaeumannomyces graminis = Gaeumannomyces graminis / liquid culture (take-all of cereals); type: cell-based; conditions: 20 ppm; compared to untreated control; inhibition of growth determined photometrically 4-5 days after application, 24° C.
Experimental: Gaeumannomyces graminis/Liquid Culture (Take-all of Cereals)
as §1, with “Mycelial fragments of” for “Conidia of”, “storage were” for “storage are”, “spores iss” for “spores is”

CC(C)CC(C)(Cc1ccc(Cl)s1)C(=O)Nc1cnc2c(F)cccc2c1 (stereo not shown) [Compound E1, 2-[(5-chloro-2-thienyl)methyl]-N-(8-fluoro-3-quinolyl)-2,4-dimethyl-pentanamide]
control of Monographella nivalis [1]: at least 80%
control of Magnaporthe grisea [2]: at least 80%
control of Glomerella lagenarium [3]: at least 80%
control of Fusarium culmorum (Fusarium culmorum): at least 80%
melting point: 142 to 145 °C
control of Botryotinia fuckeliana [4]: at least 80%
control of Gaeumannomyces graminis (Gaeumannomyces graminis): at least 80%
